The results in this text go back to patent publication US11319303B2 (WIGEN BIOMEDICINE TECHNOLOGY (SHANGHAI) CO., LTD., priority 2017, dated 2022).

SMILES strings stand for the structures. Structures can show the parent of a compound that is named as a salt.

The assay concerns the target LC3B (Homo sapiens, UniProt Q9GZQ8). As to the kind of experiment: Fluorescence Polarization (FP) Assay: displacement of FITC-labeled peptide from GST-LC3B. The format is binding. Conditions: Fluorescence Polarization assay; GST-LC3B 180 nM, FITC-labeled peptide 18 nM, 25° C.; read-out: IC50. How it is done:
The compounds of the present invention for regulating the autophagy-related protein LC3B were tested by Fluorescence Polarization (FP) Assay.
Fluorescence Polarization (FP) Assay Test
(In general: Fluorescence polarisation rises when a labelled molecule tumbles more slowly, as on binding a larger partner.)
The term IC50 denotes the concentration at which inhibition is half-maximal. As to `COc1ccc(C2CC(=O)C(=CO)C(=O)C2)c(OC)c1` (stereo not shown) [Compound 424, 2-(hydroxymethylene)-5-(2,4-dimethoxyphenyl) cyclohexane-1,3-dione], the IC50 lay within 3 to 15 µM. The value for `N#Cc1ccc(C2CC(=O)C(=CO)C(=O)C2)cc1` (stereo not shown) [Compound 425, 2-(hydroxymethylene)-5-(4-cyanophenyl)cyclo-hexane-1,3-dione] was 15 to 100 µM; that for `O=C1CC(c2ccccc2C(F)(F)F)CC(=O)C1=CO` (stereo not shown) [Compound 426, 2-(hydroxymethylene)-5-(2-trifluoromethylphenyl) cyclohexane-1,3-dione] was under 3 µM. The value for `O=C1CC(c2cccs2)CC(=O)C1=CO` (stereo not shown) [Compound 427, 2-(hydroxymethylene)-5-(2-thiophen)cyclohexane-1,3-dione] was 3 to 15 µM; that for `O=C1CC(c2ccsc2)CC(=O)C1=CO` (stereo not shown) [Compound 428, 2-(hydroxymethylene)-5-(3-thiophen)cyclohexane-1,3-dione] was 3 to 15 µM.

For `O=C1CC(c2cccc3[nH]ccc23)CC(=O)C1=CO` (stereo not shown) [Compound 429, 2-(hydroxymethylene)-5-(1H-indol-4-yl)cyclohexane-1,3-dione], the IC50 was under 3 µM. Under `O=C1CC(c2c[nH]c3ccccc23)CC(=O)C1=CO` (stereo not shown) [Compound 430, 2-(hydroxymethylene)-5-(1H-indol-3-yl)cyclohexane-1,3-dione] stands under 3 µM; under `O=C1CC(c2ccnc3ccccc23)CC(=O)C1=CO` (stereo not shown) [Compound 431, 2-(hydroxymethylene)-5-(4-quinoline)cyclohexane-1,3-dione], 3 to 15 µM; under `COc1ccc(Br)c(C2CC(=O)C(=CO)C(=O)C2)c1` (stereo not shown) [Compound 432, 2-(hydroxymethylene)-5-(2-bromo-5-methoxyphenyl)cyclo-hexane-1,3-dione], under 3 µM. The value for `COc1cc(Br)c(C2CC(=O)C(=CO)C(=O)C2)cc1OC` (stereo not shown) [Compound 433, 2-(hydroxymethylene)-5-(2-bromo-4,5-dimethoxyphenyl) cyclohexane-1,3-dione] was under 3 µM. Under `O=C1CC(c2ccccc2[N+](=O)[O-])CC(=O)C1=CO` (stereo not shown) [Compound 434, 2-(hydroxymethylene)-5-(2-nitrophenyl)cyclo-hexane-1,3-dione] stands 3 to 15 µM. Consider `O=C1CC(c2cccc([N+](=O)[O-])c2)CC(=O)C1=CO` (stereo not shown) [Compound 435, 2-(hydroxymethylene)-5-(3-nitrophenyl)cyclo-hexane-1,3-dione], for which the concentration for half-maximal inhibition (IC50) is 3 to 15 µM.

As for `O=C1CC(c2ccc([N+](=O)[O-])cc2)CC(=O)C1=CO` (stereo not shown) [Compound 436, 2-(hydroxymethylene)-5-(4-nitrophenyl)cyclo-hexane-1,3-dione], the IC50 was in the range of 3 to 15 µM. The value for `O=C1CC(c2ccc(C(F)(F)F)cc2)CC(=O)C1=CO` (stereo not shown) [Compound 437, 2-(hydroxymethylene)-5-(4-trifluoromethylphenyl) cyclohexane-1,3-dione] was 3 to 15 µM. The value for `O=C1CC(c2ccc(Br)cc2)CC(=O)C1=CO` (stereo not shown) [Compound 438, 2-(hydroxymethylene)-5-(4-bromophenyl)cyclo-hexane-1,3-dione] was 3 to 15 µM; that for `O=C1CC(c2cccc(Br)c2)CC(=O)C1=CO` (stereo not shown) [Compound 439, 2-(hydroxymethylene)-5-(3-bromophenyl)cyclo-hexane-1,3-dione] was 3 to 15 µM; that for `CSc1ccc(C2CC(=O)C(=CO)C(=O)C2)cc1` (stereo not shown) [Compound 440, 5-(4-methylthiophenyl)-2-(hydroxymethylene) cyclohexane-1,3-dione] was 3 to 15 µM.

On to `COc1cccc(OC)c1C1CC(=O)C(=CO)C(=O)C1` (stereo not shown) [Compound 441, 2-(hydroxymethylene)-5-(2,6-dimethoxyphenyl) cyclohexane-1,3-dione], for which the IC50 lay within 15 to 100 µM. Under `O=C1CC(c2ccccc2O)CC(=O)C1=CO` (stereo not shown) [Compound 442, 2-(hydroxymethylene)-5-(2-hydroxyphenyl)cyclo-hexane-1,3-dione] stands 15 to 100 µM; under `O=C1CC(c2ccc(O)cc2)CC(=O)C1=CO` (stereo not shown) [Compound 443, 2-(hydroxymethylene)-5-(4-hydroxyphenyl)cyclo-hexane-1,3-dione], 15 to 100 µM. The value for `O=C1CC(c2ccccc2)CC(=O)C1=CO` (stereo not shown) [Compound 444, 2-(hydroxymethylene)-5-phenylcyclohexane-1,3-dione] was 3 to 15 µM; that for `O=C1CC(CCc2ccc3c(c2)OCO3)CC(=O)C1=CO` (stereo not shown) [Compound 445, 2-(hydroxymethylene)-5-(2-(benzo[d] [1,3]dioxo-5-yl)ethyl)-cyclohexane-1,3-dione] was 15 to 100 µM; that for `O=C1CC(c2cccc(F)c2)CC(=O)C1=CO` (stereo not shown) [Compound 446, 2-(hydroxymethylene)-5-(3-fluorophenyl)cyclo-hexane-1,3-dione] was 3 to 15 µM. Under `O=C1CC(c2c(C(F)(F)F)ccc(Cl)c2F)CC(=O)C1=CO` (stereo not shown) [Compound 447, 2-(hydroxymethylene)-5-((2-fluoro-3-chloro-6-trifluoromethyl)phenyl)cyclohexane-1,3-dione] stands under 3 µM; under `O=C1C=C(c2ccccc2)OC(=O)C1=CO` [Compound 448, 3-(hydroxymethylene)-6-phenyl-2H-pyran-2,4(3H)-dione], 3 to 15 µM; under `CC(O)=C1C(=O)CC(c2ccccc2)CC1=O` (stereo not shown) [Compound 449, 2-(1-hydroxyethylidene)-5-phenylcyclohexane-1,3-dione], 15 to 100 µM. Regarding `O=C1CCN(c2ccccc2)C(=O)/C1=C\O` [Compound 450, 3-(hydroxymethylene)-N-phenylpiperidine-2,4-dione], the IC50 was 15 to 100 µM. Under `O=C1CC(c2ccccc2)C(F)C(=O)/C1=C/O` (stereo not shown) [Compound 451, 2-(hydroxymethylene)-4-fluoro-5-(phenyl)cyclohexane-1,3-dione] stands 3 to 15 µM; under `O=C1CC(c2ccccc2)C(F)(F)C(=O)/C1=C/O` (stereo not shown) [Compound 452, 2-(hydroxymethylene)-4,4-difluoro-5-(phenyl)cyclohexane-1,3-dione], 3 to 15 µM. Under `O=C1CC(c2cccs2)CC(=O)C1=CO` (stereo not shown) [Compound 453, 2-(hydroxy-methylene)-5-(2-thiophen)cyclo-hexane-1,3-dione lithium salt] stands 3 to 15 µM.

For the molecule `O=C1CC(c2cccs2)CC(=O)C1=CO` (stereo not shown) [Compound 455, 2-(hydroxy-methylene)-5-(2-thiophen)cyclo-hexane-1,3-dione potassium salt], the IC50 lay in the range of 3 to 15 µM. The value for `O=C1CC(c2ccsc2)CC(=O)C1=CO` (stereo not shown) [Compound 456, 2-(hydroxy-methylene)-5-(3-thiophen)cyclo-hexane-1,3-dione lithium salt] was 3 to 15 µM; that for `O=C1CC(c2ccsc2)CC(=O)C1=CO` (stereo not shown) [Compound 457, 2-(hydroxy-methylene)-5-(3-thiophen)cyclo-hexane-1,3-dione sodium salt] was 3 to 15 µM; that for `O=C1CC(c2ccsc2)CC(=O)C1=CO` (stereo not shown) [Compound 458, 2-(hydroxy-methylene)-5-(3-thiophen)cyclo-hexane-1,3-dione potassium salt] was 3 to 15 µM. For `O=C1CC(c2cccc3[nH]ccc23)CC(=O)C1=CO` (stereo not shown) [Compound 459, 2-(hydroxy-methylene)-5-(1H-indol-4-yl)cyclo-hexane-1,3-dione lithium salt], the half-maximal inhibitory concentration (IC50) is under 3 µM. The value for `O=C1CC(c2cccc3[nH]ccc23)CC(=O)C1=CO` (stereo not shown) [Compound 460, 2-(hydroxy-methylene)-5-(1H-indol-4-yl)cyclo-hexane-1,3-dione sodium salt] was under 3 µM.

Regarding `O=C1CC(c2cccc3[nH]ccc23)CC(=O)C1=CO` (stereo not shown) [Compound 461, 2-(hydroxy-methylene)-5-(1H-indol-4-yl)cyclo-hexane-1,3-dione potassium salt], the IC50 was under 3 µM.
